Laboratory results reported in patent publication US12173018B2, “Penicillin-binding protein inhibitors” (priority 2018, dated 2024).
Converted amounts (≈) assume the structure as drawn. Where two headings read alike, the source gives them in different places.

How the values were obtained:
E. coli PBP1b = E. coli PBP1b (Escherichia coli (strain K12), UniProt P02919); assay: Radioligand competition binding assay with 14C-labeled boronic acid probe, PBP1b
Description: To determine the ability of boronic acid-based test PBP inhibitors to bind Penicillin Binding Proteins (PBPs), a radio-labelled boronic acid PBP inhibitor
[drawing 751] was used in competition binding assays to determine boronic acid PBP inhibitor binding to PBP1a or PBP1b from Escherichia coli. PBP1a and PBP1b were purified as described previously (Bertsche, U.; et al., J. Biol. Chem. 2005, 280 (45), 38096-38101; Born, P.; et al., J. Biol. Chem. 2006. 281 (37), 26985-26993). To establish assay conditions for competition binding, an enzyme titration/saturation binding experiment was performed. Saturation binding was performed in a buffer comprised of 20 mM Tris (pH 7.5), 500 mM NaCl and 0.1% (v/v) TritonX-100, with PBP1a/PBP1b at a final concentration of 0.1 μM and Compound A at final concentrations ranging from 0-100 μM. Mixtures were incubated for 60 minutes, then applied to Zeba Spin Desalting columns or plates (ThermoFisher Scientific) and centrifuged at 1000-1500×g for 2 minutes. The flow through, containing PBP bound with Compound A, was recovered and 100 μL mixed with 5 mL of UltimaGold liquid scintillation cocktail (Perkin Elmer), and the radioactivity counted using a Beckman Coulter LS 6500 Multipurpose scintillation counter. PBP binding of Compound A approached saturation at 20 μM of ^14C-labeled probe. The competition binding assay was validated using the beta-lactam ampicillin, with Compound A at a final concentration of 20 μM, PBP1a/PBP1b at a final concentration of 0.1 μM. PBP1a/PBP1b was incubated with ampicillin in a 96-well microplate for 60 minutes, then Compound A was added and the mixtures incubated for an additional 60 minutes. The mixtures were then applied to Zeba Spin desalting plates and centrifuged at 1000×g for 2 minutes. The flow through was recovered and 100 μl mixed with 5 ml of UltimaGold liquid scintillation cocktail and the radioactivity counted. […] Binding assays with boronic acid PBP inhibitors were performed in an identical fashion. The potency of boronic acid PBP inhibitors was reported as the EC50 value.

E. coli PBP3 = E. coli PBP3 (Escherichia coli (strain K12), UniProt P0AD68); assay: E. coli PBP3 Bocillin-FL fluorescence polarization competition binding assay
Summary of the method: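 Competition against 0.1 μM Bocillin-FL for binding to 1.5 μM purified protein, read by fluorescence polarization for 60 min. Compounds tested from 0 to 1000 μM; EC50 taken as the concentration reducing probe binding.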

N. gonorrhoeae FA1090 = assay: Liquid broth MIC, N. gonorrhoeae FA1090; type: cell-based; conditions: Neisseria gonorrhoeae; N. gonorrhoeae FA1090, liquid broth; read-out: Minimum Inhibitory Concentration, N. gonorrhoeae FA1090
Procedure: (§1) Additional antibacterial testing of the series was performed in wild-type reference strains of N. gonorrhoeae (ATCC 49226, FA1090, WHO F and FA19). Liquid broth-based assays were used for antibacterial testing of PBP inhibitors in Neisseria gonorrhoeae. Briefly, cryo-preserved bacterial cultures of clinical strains are streaked for isolation on GC Base agar (BD #228950 at 36 g/L autoclaved at 121° C. for 20 minutes to sterilize) with 1% Kellogg's supplement (40 g glucose, 0.5 g glutamine, 0.05 g ferric nitrate and 2 mg cocarboxylase per 100 mL deionized water filter sterilized through 0.2 μm syringe filters). Following incubation at 36° C. and 5% CO2 to allow growth of colonies, strains are aseptically sub-cultured from original agar plate onto 3 agar plates per strain 24 hours before inoculum preparation. 2-fold serial dilutions of test compounds are conducted in a 96 well plate with a final volume of 150 μL per well at 4/3-fold the final desired concentration. For preparation of assay inoculum, a direct suspension is prepared by aseptically swabbing all colonies from sub-cultured agar plates into culture tubes containing 2 mL of fresh GC broth with […]. After the dilution plates are set up, direct suspensions are then diluted in a cuvette containing GC broth (15 g proteose peptone 43, 1 g corn starch, 4 g dipotassium phosphate, 1 g monopotassium phosphate and 5 g sodium chloride per liter of deionized water are mixed on a stir plate for 20 minutes, pH adjusted to 7.2+/−0.2 pH units with 1 N HCl, centrifuged at 10,000×g for 20 minutes to pellet undissolved corn starch and then autoclaved at 121° C. for 20 minutes to sterilize) and the optical density is measured at 600 nm. Inocula are diluted such that 50 μL of this culture in […] results in a starting bacterial concentration of 5×10^5 CFU/mL when added to the dilution plates. The plates are incubated 40-42 hours at 36° C. and 5% CO2. The MIC is read visually as the lowest concentration well with no bacterial growth.

N. gonorrhoeae WHO F = assay: Liquid broth MIC, N. gonorrhoeae WHO F; type: cell-based; conditions: Neisseria gonorrhoeae; N. gonorrhoeae WHO F, liquid broth; read-out: Minimum Inhibitory Concentration, N. gonorrhoeae WHO F
Procedure: as §1

[1] = system: N. gonorrhoeae ATCC 49226; assay: Liquid broth MIC, N. gonorrhoeae ATCC 49226; type: cell-based; conditions: Neisseria gonorrhoeae, ATCC49226; N. gonorrhoeae ATCC 49226, liquid broth; read-out: Minimum Inhibitory Concentration, N. gonorrhoeae ATCC 49226
Procedure: as §1

N. gonorrhoeae FA19 = assay: Liquid broth MIC, N. gonorrhoeae FA19; type: cell-based; conditions: Neisseria gonorrhoeae; N. gonorrhoeae FA19, liquid broth; read-out: Minimum Inhibitory Concentration, N. gonorrhoeae FA19
Procedure: as §1

[2] = system: engineered strain of Escherichia coli harboring CTX-M15; assay: microbe, parasite or virus in culture; type: cell-based; conditions: Escherichia coli, read-out: Microbiological Activity (MIC in mg/L), E. coli DH5α/pLBII-CTX-M15, engineered strain producing CTX-M15
Procedure: Briefly, cryo-preserved bacterial cultures of challenge strains are streaked for isolation on appropriate agar medium, in this case Mueller Hinton II agar. Following incubation to allow growth of the colonies, plates are sealed with parafilm and stored refrigerated for up to two weeks. For preparation of assay inoculum and to ensure low variability, at least 5 colonies are picked from the agar plates with an inoculating loop and aseptically transferred to a culture tube containing 3 mL of Mueller-Hinton Broth (supplemented with divalent cations to required levels based on Manufacturers' certification). The broth culture is grown for 3-5 hours at 37° C. with shaking at 200 rpm. Meanwhile, 2-fold serial dilutions of test compounds are conducted in a 96 well plate with a final volume of 75 μL per well at 2-fold the final desired concentration. After the dilution plates are set up the growing cultures are then diluted in a cuvette containing MH II broth and the optical density is measured at 600 nm. The Inoculum is diluted such that 75 μL of this culture in Mueller-Hinton Broth results in a starting bacterial concentration of 5×10^5 CFU/mL when added to the dilution plates. The plates are incubated for 16-20 hours at 37° C. The MIC values are read visually as the lowest concentration well with no bacterial growth.
To determine if test compounds were affected by CTX-M15, the most abundant extended spectrum […] in clinical settings worldwide, the inhibition of the growth of an engineered strain of Escherichia coli harboring CTX-M15 was tested. This strain was constructed by cloning the gene encoding CTX-M15 into the NdeI and BamHI restriction endonuclease sites of plasmid pLBII, placing the gene(s) under the control of the Lac promoter. The constructed expression plasmid for CTX-M15 was used to transform competent E. coli DH5α cells to make the engineered strain, including an empty pLBII vector control strain. The classic cell based broth microdilution MIC assay was employed as described above with the addition of control antibiotics, known to be degraded by β-lactamases (Ceftazidime, piperacillin and piperacillin+tazobactam).

[3] = fluorescence polarization competition binding with Bocillin-FL, read-out: E. coli K12 PBP3 Potency

Chain of E. coli PBP1b (P02919 whole entry): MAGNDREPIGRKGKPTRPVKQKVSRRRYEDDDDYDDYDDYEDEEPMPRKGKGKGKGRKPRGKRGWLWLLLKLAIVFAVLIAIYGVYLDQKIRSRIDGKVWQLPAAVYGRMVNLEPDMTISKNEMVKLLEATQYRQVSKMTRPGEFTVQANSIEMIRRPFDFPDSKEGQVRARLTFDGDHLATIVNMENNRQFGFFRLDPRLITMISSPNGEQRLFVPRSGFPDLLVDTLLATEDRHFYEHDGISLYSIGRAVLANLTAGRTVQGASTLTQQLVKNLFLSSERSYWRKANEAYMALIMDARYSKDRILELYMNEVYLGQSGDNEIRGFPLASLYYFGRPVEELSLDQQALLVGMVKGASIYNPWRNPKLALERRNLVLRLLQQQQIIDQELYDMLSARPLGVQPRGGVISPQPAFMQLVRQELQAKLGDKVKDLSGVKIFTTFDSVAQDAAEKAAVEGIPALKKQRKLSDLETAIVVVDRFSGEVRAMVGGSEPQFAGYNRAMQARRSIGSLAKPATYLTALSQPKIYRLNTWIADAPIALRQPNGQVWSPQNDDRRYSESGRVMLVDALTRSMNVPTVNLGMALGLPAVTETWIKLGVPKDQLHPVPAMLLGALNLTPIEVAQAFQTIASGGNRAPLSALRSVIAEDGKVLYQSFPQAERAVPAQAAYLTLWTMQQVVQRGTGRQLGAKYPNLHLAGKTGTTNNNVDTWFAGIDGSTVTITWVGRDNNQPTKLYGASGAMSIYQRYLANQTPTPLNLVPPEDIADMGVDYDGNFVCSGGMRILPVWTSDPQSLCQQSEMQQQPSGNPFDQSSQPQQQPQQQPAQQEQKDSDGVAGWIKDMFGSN
Chain of E. coli PBP3 (P0AD68 whole entry): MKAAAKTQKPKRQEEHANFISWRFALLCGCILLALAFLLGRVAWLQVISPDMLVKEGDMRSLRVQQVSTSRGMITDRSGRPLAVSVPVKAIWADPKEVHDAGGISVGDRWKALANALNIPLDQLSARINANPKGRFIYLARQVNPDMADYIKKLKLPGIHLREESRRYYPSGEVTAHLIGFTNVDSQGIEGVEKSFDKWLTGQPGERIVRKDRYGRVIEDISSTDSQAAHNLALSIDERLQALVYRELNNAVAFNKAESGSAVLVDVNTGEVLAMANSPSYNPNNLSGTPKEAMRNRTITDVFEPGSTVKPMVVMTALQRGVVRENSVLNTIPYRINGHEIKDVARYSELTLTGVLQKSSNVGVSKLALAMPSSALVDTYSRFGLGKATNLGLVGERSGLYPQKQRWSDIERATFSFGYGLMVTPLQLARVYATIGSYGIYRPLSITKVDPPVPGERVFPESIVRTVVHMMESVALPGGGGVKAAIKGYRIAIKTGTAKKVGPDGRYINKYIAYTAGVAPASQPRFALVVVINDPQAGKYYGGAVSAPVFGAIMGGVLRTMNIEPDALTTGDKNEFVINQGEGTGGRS

Structure (SMILES)	EC50 (E. coli PBP1b) [µM]	EC50 (E. coli PBP3; [3]) [µM]	also measured
CCN1CCN(C(=O)NC(CC(=O)N[C@H]2Cc3cccc(C(=O)O)c3OB2O)c2cc(O)c(O)c(Cl)c2)C(=O)C1=O (stereo partly drawn) [Example 43, (3R)-3-(3-(3-chloro-4,5-dihydroxyphenyl)-3-(4-ethyl-2,3-dioxopiperazine-1-carboxamido)propanamido)-2-hydroxy-3,4-dihydro-2H-benzo[e][1,2]oxaborinine-8-carboxylic acid]	10 to 100		EC50 (E. coli PBP3): 30 to 500 µM
CCN1CCN(C(=O)NC(C(=O)N[C@H]2Cc3cccc(C(=O)O)c3OB2O)C(O)c2ccc(O)c(O)c2Cl)C(=O)C1=O (stereo partly drawn) [Example 47, (3R)-3-(3-(2-chloro-3,4-dihydroxyphenyl)-2-(4-ethyl-2,3-dioxopiperazine-1-carboxamido)-3-hydroxypropanamido)-2-hydroxy-3,4-dihydro-2H-benzo[e][1,2]oxaborinine-8-carboxylic acid]	10 to 100	> 500	
CCN1CCN(C(=O)NC(C(=O)N[C@H]2Cc3cccc(C(=O)O)c3OB2O)C(O)c2cccc(O)c2O)C(=O)C1=O (stereo partly drawn) [Example 48, (3R)-3-(3-(2,3-dihydroxyphenyl)-2-(4-ethyl-2,3-dioxopiperazine-1-carboxamido)-3-hydroxypropanamido)-2-hydroxy-3,4-dihydro-2H-benzo[e][1,2]oxaborinine-8-carboxylic acid]	< 10	> 500	
O=C(O)c1cccc2c1OB(O)[C@@H](NC(=O)C(NC(=O)N1CCNC1=O)c1ccc(O)c(O)c1Cl)C2 (stereo partly drawn) [Example 52, (3R)-3-(2-(2-chloro-3,4-dihydroxyphenyl)-2-(2-oxoimidazolidine-1-carboxamido)acetamido)-2-hydroxy-3,4-dihydro-2H-benzo[e][1,2]oxaborinine-8-carboxylic acid]			MIC (N. gonorrhoeae FA1090): < 0.125 µg/mL; MIC (N. gonorrhoeae WHO F): < 0.125 µg/mL; MIC [1]: 0.25 to 0.5 µg/mL (≈ 0.482 to 0.964 µM); MIC (N. gonorrhoeae FA19): > 64 µg/mL; MIC [2]: 128 to 256 mg/L (≈ 247 to 494 µM)
CCN1CCN(C(=O)NC(C(=O)N[C@H]2Cc3cccc(C(=O)O)c3OB2O)c2ccccn2)C(=O)C1=O (stereo partly drawn) [Example 56, (3R)-3-(2-(4-ethyl-2,3-dioxopiperazine-1-carboxamido)-2-(pyridin-2-yl)acetamido)-2-hydroxy-3,4-dihydro-2H-benzo[e][1,2]oxaborinine-8-carboxylic acid]	> 100		
CCN1CCN(C(=O)NC(C(=O)N[C@H]2Cc3cccc(C(=O)O)c3OB2O)c2ccc(-c3nnn[nH]3)cc2)C(=O)C1=O (stereo partly shown) [Example 93]		< 30	MIC (N. gonorrhoeae FA1090): 0.25 to 0.5 µg/mL (≈ 0.434 to 0.868 µM); MIC (N. gonorrhoeae WHO F): < 0.125 µg/mL; MIC [1]: 4 to 8 µg/mL (≈ 6.94 to 13.9 µM); MIC (N. gonorrhoeae FA19): 4 to 8 µg/mL (≈ 6.94 to 13.9 µM); MIC [2]: 32 to 64 mg/L (≈ 55.5 to 111 µM)
CCN1CCN(C(=O)NC(C(=O)N[C@H]2Cc3cccc(C(=O)O)c3OB2O)C2CCS(=O)(=O)C2)C(=O)C1=O (stereo partly drawn) [Example 123, (3R)-3-(2-(1,1-dioxidotetrahydrothiophen-3-yl)-2-(4-ethyl-2,3-dioxopiperazine-1-carboxamido)acetamido)-2-hydroxy-3,4-dihydro-2H-benzo[e][1,2]oxaborinine-8-carboxylic acid]	> 100	> 500	
CCN1CCN(C(=O)NC(C(=O)N[C@H]2Cc3cccc(C(=O)O)c3OB2O)c2ccc(C)cn2)C(=O)C1=O (stereo partly drawn) [Example 127, (3R)-3-(2-(4-ethyl-2,3-dioxopiperazine-1-carboxamido)-2-(5-methylpyridin-2-yl)acetamido)-2-hydroxy-3,4-dihydro-2H-benzo[e][1,2]oxaborinine-8-carboxylic acid]	> 100	> 500	
CCN1CCN(C(=O)NC(C(=O)N[C@H]2Cc3cccc(C(=O)O)c3OB2O)C(Cl)CCCO)C(=O)C1=O (stereo partly drawn) [Example 129, (3R)-3-(3-chloro-2-(4-ethyl-2,3-dioxopiperazine-1-carboxamido)-6-hydroxyhexanamido)-2-hydroxy-3,4-dihydro-2H-benzo[e][1,2]oxaborinine-8-carboxylic acid]	> 100	> 500	
CCN1CCN(C(=O)NC(C(=O)N[C@H]2Cc3cccc(C(=O)O)c3OB2O)C(Cl)CCCO)C(=O)C1=O (stereo partly drawn) [Example 130, (3R)-3-(3-chloro-2-(4-ethyl-2,3-dioxopiperazine-1-carboxamido)-6-hydroxyhexanamido)-2-hydroxy-3,4-dihydro-2H-benzo[e][1,2]oxaborinine-8-carboxylic acid]			EC50 (E. coli PBP1b; read-out: E. coli K12 PBP1b EC50, competition binding with 14C-labeled boronic acid probe): > 100 µM
